This is an account of results in ChEMBL document CHEMBL1201862, “PubChem BioAssay data set” (2004).

The source made the active and inactive calls.

For test [1], the target named is T1, Polyadenylate-binding protein 1 (Homo sapiens, UniProt P11940). Kind of test: MLLE domain peptide-binding blockers, IC50 – biochemical, fluorescence polarization, FITC-PAM2 peptide, dose response (AID 602259). To be noted: read-out: IC50_Mean. Type of test: functional.
Test [2] addresses T1, Polyadenylate-binding protein 1. Nature of the test: MLLE binding blockers, Cy5 peptide tracer – biochemical, fluorescence polarization, Cy5-PAM2 peptide, secondary, miRNA deadenylation inhibitor project, dose response (AID 602260). Type of test: functional. The note with it: read-out: IC50_Mean.
Test [3] addresses T2, RNA-binding protein pos-1 (Caenorhabditis elegans, UniProt G5EF15).
T2 sequence (G5EF15 whole entry): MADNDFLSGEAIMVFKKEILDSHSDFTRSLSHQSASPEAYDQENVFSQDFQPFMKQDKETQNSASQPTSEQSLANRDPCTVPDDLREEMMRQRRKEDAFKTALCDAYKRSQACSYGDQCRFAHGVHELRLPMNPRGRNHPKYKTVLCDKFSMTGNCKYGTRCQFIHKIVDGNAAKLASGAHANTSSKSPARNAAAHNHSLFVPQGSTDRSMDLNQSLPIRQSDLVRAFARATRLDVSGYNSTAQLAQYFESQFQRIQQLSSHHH
Nature of the test: disruptors of C. elegans POS-1 RNA interaction – biochemical, fluorescence polarization, dose response (AID 1964).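 Note: purified POS-1 fused to maltose binding protein made in E. coli; potency of compounds blocking POS-1 binding to fluorescent RNA.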

Test [4] deals with T3, Zinc finger protein mex-5 (Caenorhabditis elegans, UniProt Q9XUB2).
T3 sequence (Q9XUB2 whole entry): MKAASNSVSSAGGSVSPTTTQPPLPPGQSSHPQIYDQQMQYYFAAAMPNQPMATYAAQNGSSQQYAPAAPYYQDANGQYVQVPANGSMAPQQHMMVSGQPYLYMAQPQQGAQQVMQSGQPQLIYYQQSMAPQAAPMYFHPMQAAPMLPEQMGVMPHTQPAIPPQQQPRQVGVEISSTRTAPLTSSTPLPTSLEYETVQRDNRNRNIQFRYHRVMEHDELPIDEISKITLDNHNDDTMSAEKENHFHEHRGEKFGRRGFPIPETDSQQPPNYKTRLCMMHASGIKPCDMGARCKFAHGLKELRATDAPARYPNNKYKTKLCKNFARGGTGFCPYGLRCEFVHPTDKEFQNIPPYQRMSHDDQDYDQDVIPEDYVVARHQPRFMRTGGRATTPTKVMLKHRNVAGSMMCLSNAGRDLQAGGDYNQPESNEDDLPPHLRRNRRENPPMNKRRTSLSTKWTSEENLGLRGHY
Kind of test: potency of MEX-5 RNA-binding blockers – biochemical, C. elegans, fluorescence polarization, dose response (AID 1960).

Test [5] deals with T4, Rac GTPase-activating protein 1 (Homo sapiens, UniProt Q9H0H5).
T4 sequence (Q9H0H5 whole entry): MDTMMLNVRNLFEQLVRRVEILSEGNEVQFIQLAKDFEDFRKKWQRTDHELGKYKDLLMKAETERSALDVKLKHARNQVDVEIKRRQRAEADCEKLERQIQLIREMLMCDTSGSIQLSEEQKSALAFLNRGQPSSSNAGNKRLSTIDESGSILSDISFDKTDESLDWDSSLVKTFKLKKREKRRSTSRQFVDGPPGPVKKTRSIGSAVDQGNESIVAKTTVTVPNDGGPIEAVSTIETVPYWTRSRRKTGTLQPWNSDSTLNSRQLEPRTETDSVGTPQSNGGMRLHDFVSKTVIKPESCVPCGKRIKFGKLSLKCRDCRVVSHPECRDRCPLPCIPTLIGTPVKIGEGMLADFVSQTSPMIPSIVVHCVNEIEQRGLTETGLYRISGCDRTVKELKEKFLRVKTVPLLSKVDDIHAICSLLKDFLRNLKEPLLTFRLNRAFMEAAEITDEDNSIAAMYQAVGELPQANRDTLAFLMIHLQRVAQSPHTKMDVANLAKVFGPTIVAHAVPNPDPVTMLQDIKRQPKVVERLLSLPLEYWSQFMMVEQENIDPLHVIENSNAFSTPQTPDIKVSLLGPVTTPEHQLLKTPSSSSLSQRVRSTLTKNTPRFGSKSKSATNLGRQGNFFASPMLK
Kind of test: blockers of MgcRacGAP-driven Rac1 GTP hydrolysis – biochemical, ADP Hunter fluorescence, primary and confirmatory, confirmation (AID 624330). Type of test: functional.

The next test relates to H4. Nature of the test: Luminescence Cell-Based Dose Response HTS to Identify Activators of 5'UTR Stem-Loop Driven Prion Protein mRNA Translation in H4 Neuroglioblastoma Cells. [Related pubchem assays: 1829 (Project Summary), 1814 (Primary HTS)]. It is filed as functional. To be noted: Homo sapiens.
Test [6] is described as follows: Luminescence Cell-Based Dose Response HTS to Identify Activators of Luciferase Translation or Activity in H4 […] Cells. [Related pubchem assays: 1829 (Project Summary), 1814 (Primary HTS)]. Type of test: functional.
The target in another test is Nonstructural protein 1 (Influenza A virus, UniProt Q194T2). Type of test: functional, Influenza A virus (A/California/07/2009(H1N1)).
A short description of test [7]: luciferase reporter signal suppression in cells – H4 neuroglioma cells, luminescence, dose response (AID 1990). It is filed as functional, cell-based.
The nature of test [8]: Luminescence Cell-Based Dose Response HTS to Identify Inhibitors of 5'UTR Stem-Loop Driven Prion Protein mRNA Translation in H4 Neuroglioblastoma Cells. [Related pubchem assays: 1827 (Project Summary), 1813 (Primary HTS)]. It is filed as functional.
Test [9] can be described thus: alpha-synuclein stem-loop luciferase translation blockers – H4 neuroglioma cells, luminescence, confirmation (AID 1988). It is filed as functional, cell-based.
Test [10] deals with FAD-linked sulfhydryl oxidase ALR (Homo sapiens, UniProt P55789). Nature of the test: ALR-catalysed DTT oxidation blockers – biochemical, H2O2 detection, luminescence, cherry-pick, dose response (AID 493248).
Test [11] is described as follows: Luminescence Cell-Based Dose Retest to Confirm Inhibitors of Cancer Stem Cells. [Related pubchem assays (depositor defined):AID2717, AID2721]. Type of test: functional. To be noted: Homo sapiens.

Nonstructural protein 1, sequence (Q194T2 whole entry): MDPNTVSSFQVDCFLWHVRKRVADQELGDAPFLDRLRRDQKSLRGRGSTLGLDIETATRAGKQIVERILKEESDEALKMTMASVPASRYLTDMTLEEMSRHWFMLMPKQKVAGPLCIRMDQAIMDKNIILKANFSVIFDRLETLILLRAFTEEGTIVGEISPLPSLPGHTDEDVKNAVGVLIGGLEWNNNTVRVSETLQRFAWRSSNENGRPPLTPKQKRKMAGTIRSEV
T1 sequence (P11940 whole entry, the tested form may be a part): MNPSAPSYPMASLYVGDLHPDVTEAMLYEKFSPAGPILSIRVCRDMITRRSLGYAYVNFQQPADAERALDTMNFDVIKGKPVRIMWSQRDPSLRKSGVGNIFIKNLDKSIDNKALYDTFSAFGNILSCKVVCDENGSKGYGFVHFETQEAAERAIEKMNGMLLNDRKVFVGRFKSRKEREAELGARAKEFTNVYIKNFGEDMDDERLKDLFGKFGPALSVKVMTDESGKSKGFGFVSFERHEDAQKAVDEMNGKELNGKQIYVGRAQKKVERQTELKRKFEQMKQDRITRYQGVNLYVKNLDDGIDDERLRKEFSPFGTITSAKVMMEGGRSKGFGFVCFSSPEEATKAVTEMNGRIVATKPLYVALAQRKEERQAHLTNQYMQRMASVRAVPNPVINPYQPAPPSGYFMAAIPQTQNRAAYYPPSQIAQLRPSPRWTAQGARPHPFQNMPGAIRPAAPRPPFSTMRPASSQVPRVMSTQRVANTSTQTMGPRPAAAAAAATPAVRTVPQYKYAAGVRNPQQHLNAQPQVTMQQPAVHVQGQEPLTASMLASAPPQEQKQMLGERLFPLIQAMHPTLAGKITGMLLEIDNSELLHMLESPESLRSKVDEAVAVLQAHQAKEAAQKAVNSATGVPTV
FAD-linked sulfhydryl oxidase ALR, sequence (P55789 whole entry): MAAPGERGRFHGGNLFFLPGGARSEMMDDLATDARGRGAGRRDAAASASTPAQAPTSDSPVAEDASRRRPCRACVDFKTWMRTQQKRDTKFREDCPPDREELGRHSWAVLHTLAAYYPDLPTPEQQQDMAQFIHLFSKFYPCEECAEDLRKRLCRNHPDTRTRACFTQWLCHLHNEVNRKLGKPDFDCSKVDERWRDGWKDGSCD

Regarding `NC(S)=NN=C1c2cc(S(=O)(=O)N3CCOCC3)ccc2-c2ccc(S(=O)(=O)N3CCOCC3)cc21`, the IC50 in test [1] and in test [2] was > 66 µM (inactive) in each case.
On to `Cc1cccc(-n2c(N)cc(=O)nc2SCC(=O)Nc2cc(C)on2)c1`, for which the IC50 in test [1] and in test [2] was > 66 µM (inactive) in each case.
As to `O=C(NN1C(=O)c2ccccc2NC1c1ccccn1)c1ccc(Br)cc1` (stereo not given), the EC50 in [3] is 64.9 µM (active); in test [4] it was 15.5 µM (active).
For the molecule `c1ccc(CN2CCN(Cc3ccc4ccccc4c3)CC2)cc1`, the IC50 in test [5] is 123 µM (active).
On the same count and under the same terms, for `c1ccc(-c2ccccc2OCCOCCN2CCOCC2)cc1` the value was 58.9 µM (active).
With `CN(C)C=O.Oc1cccc2c(NC(S)=Nc3ccc(OC(F)F)cc3)cccc12`, the figures for the EC50 (in the test on H4; in [6]) were > 120 µM (not active) and 12.8 µM (active), respectively. For the same molecule, the IC50 in [5] was 116 µM (active).
Turning to `Cc1cccn2c(=O)c3cc(C(=O)N(C)C)n(C)c3nc12`, the IC50 in test [1] was 39.3 µM (inactive); in test [2], > 66 µM (inactive).
Regarding `Cc1c(C(=O)NCc2ccc3c(c2)cc(C)n3C)cccc1[N+](=O)[O-]`, the IC50 in test [1] and in test [2] was > 66 µM (inactive) throughout.
With `COc1cccc(-c2nc(CSCC(=O)NCC3CCCO3)c(C)o2)c1` (stereo not given), the IC50 in test [1] and in [2] was > 66 µM (inactive) each time.
Regarding `Cn1cc(/C=C2/SC(=O)N(c3ccccc3)C2=O)c2ccccc21`, the figures for the concentration giving a half-maximal response (EC50) (in the test on H4; in test [6]) were 94.6 µM (active) and 50.8 µM (active), respectively.
Turning to `N=C1/C(=C\c2ccc(SCc3ccccc3)o2)C(=O)N=C2SC(CC(=O)N3CCOCC3)=NN12`, the EC50 in test [3] was 63.4 µM (active); in [4] it was 33.3 µM (active).
Turning to `CCOC(=O)c1c(N/C=C2/C(=O)NC(=O)N(c3cccc(C)c3)C2=O)sc2c1CCCC2`, the 50% effective concentration (EC50) in [3] and in test [4] was > 300 µM (not active) in each case.
On to `O=C(CCSc1ccc(Cl)cc1)N1CCCCCC1`, for which the results for the EC50 (in the test with H4; in test [6]) were 21.6 µM (active) and > 120 µM (not active), respectively.
Take `CC(C)C(=O)OCC(=O)Nc1ccc(N=Nc2ccccc2)cc1`: the IC50 at Nonstructural protein 1 was > 100 µM (active).
For `CCCNc1cc(S)nc(N)n1`, the IC50 in test [1] and in test [2] was > 66 µM (inactive) in each case.
For the molecule `CN(C)c1ccc(NC(=O)c2ccc3nsnc3c2)cc1`, in [5], the IC50 was 65.4 µM (active).
In the case of `O=C(COC(=O)C1CCCCC1)Nc1ccc(N2CCCCC2)cc1`, at Nonstructural protein 1, the IC50 is 34.6 µM (active).
In the case of `CC1CCN(c2ccccc2NC(=S)NC(=O)C(C)(C)C)CC1`, the EC50 was 16 µM (active) in [7], > 120 µM (not active) in test [8] and > 120 µM (not active) in [9]. The IC50 in test [1] and in test [2] was > 66 µM (inactive) throughout.
For `O=C(c1ccccc1)c1ccc(C(=O)N2CCN(c3ccc(O)cc3)CC2)cc1`, the IC50 in test [5] is 34 µM (active).
On to `NC(=S)N=Nc1c(O)[nH]c2c(Cl)cc(Cl)cc12`, for which the IC50 in [1] and in [2] was > 66 µM (inactive) each time.
In the case of `N#Cc1c(-c2ccc(Cl)cc2)c2c([nH]c1=O)-c1ccccc1OC2`, the concentration for a half-maximal effect (EC50) in test [3] is > 300 µM (not active); in [4], 53 µM (active).
Regarding `COc1cc(/C=N/NC(=O)c2cc3ccccc3[nH]2)ccc1O`, in [10], the concentration at half-maximal activity (AC50) is 0.393 µM (active). Further, the IC50 in test [5] was 17.8 µM (active).
`O=C(NCC1CCCO1)C(=O)N/N=C/c1cc(Cl)ccc1O` (stereo not given): the IC50 at Nonstructural protein 1 was 7.81 µM (active).
Regarding `CCOc1cc(/C=N/n2c(C)nnc2C)ccc1O`, the IC50 in test [5] was 103 µM (active).
Consider `CCN(CC)S(=O)(=O)c1cccc(-c2nnc(S)n2/N=C/c2ccc(OC(F)F)cc2)c1`, for which the IC50 in [5] is 147 µM (active).
Turning to `Cc1cc([N+](=O)[O-])nn1CC(=O)N/N=C/c1ccc(O)cc1O`, the AC50 in test [11] is 12.1 µM (active). Besides, the IC50 at Nonstructural protein 1 is 14.2 µM (active).
For the molecule `CCc1cc(/C(Cc2csc(C)n2)=N/O)c(O)cc1O`, the IC50 in test [5] is 28.3 µM (active).
On to `CCOC(=O)c1cnc2nc(C)ccc2c1O`, for which the EC50 was 13.7 µM (inconclusive) in test [3] and 11.8 µM (active) in test [4].
